Data from ChEMBL document CHEMBL5244230, “Artemisinin-derived hybrids and their anticancer activity” (Eur J Med Chem, 2020).

Test system: DLD-1
Assay: Cytotoxicity against human DLD-1 cells assessed as cell growth inhibition measured after 48 hrs by MTT assay
Type: functional
Conditions: not given

| Structure (SMILES) | GI50 [nM] |
| --- | --- |
| Cc1ccc(-c2cnnn2[C@@H]2O[C@@H]3O[C@@]4(C)CC[C@H]5[C@H](C)CC[C@@H]([C@H]2C)[C@@]35OO4)cc1 | 40 |
| CCCCCc1ccc(-c2cn([C@H]3O[C@@H]4O[C@@]5(C)CC[C@H]6[C@H](C)CC[C@@H]([C@@H]3C)[C@@]46OO5)nn2)cc1 | 30 |
| C[C@@H]1CC[C@H]2[C@@H](C)C(n3cc(-c4cccc(Cl)c4)nn3)O[C@@H]3O[C@@]4(C)CC[C@@H]1[C@]32OO4 (some centres not stated) | 50 |
| C[C@@H]1[C@@H](n2cc(-c3ccc(F)cc3)nn2)O[C@@H]2O[C@@]3(C)CC[C@H]4[C@H](C)CC[C@@H]1[C@@]24OO3 | 30 |
| COc1ccc(-c2cn([C@H]3O[C@@H]4O[C@@]5(C)CC[C@H]6[C@H](C)CC[C@@H]([C@@H]3C)[C@@]46OO5)nn2)cc1 | 30 |
| C[C@H]1[C@H](n2cc(-c3ccccc3)nn2)O[C@@H]2O[C@@]3(C)CC[C@H]4[C@H](C)CC[C@@H]1[C@@]24OO3 | 50 |
| CCCCCc1ccc(-c2cnnn2[C@@H]2O[C@@H]3O[C@@]4(C)CC[C@H]5[C@H](C)CC[C@@H]([C@H]2C)[C@@]35OO4)cc1 | 40 |

Test system: not listed separately
Assay: Cytotoxicity against human U87 cells assessed as cell growth inhibition measured after 48 hrs by MTT assay
Type: functional, U-87MG ATCC
Conditions: U-87 MG

| Structure (SMILES) | GI50 [nM] |
| --- | --- |
| Cc1ccc(-c2cnnn2[C@@H]2O[C@@H]3O[C@@]4(C)CC[C@H]5[C@H](C)CC[C@@H]([C@H]2C)[C@@]35OO4)cc1 | 40 |
| CCCCCc1ccc(-c2cn([C@H]3O[C@@H]4O[C@@]5(C)CC[C@H]6[C@H](C)CC[C@@H]([C@@H]3C)[C@@]46OO5)nn2)cc1 | 30 |
| C[C@@H]1CC[C@H]2[C@@H](C)C(n3cc(-c4cccc(Cl)c4)nn3)O[C@@H]3O[C@@]4(C)CC[C@@H]1[C@]32OO4 (some centres not stated) | 50 |
| C[C@@H]1[C@@H](n2cc(-c3ccc(F)cc3)nn2)O[C@@H]2O[C@@]3(C)CC[C@H]4[C@H](C)CC[C@@H]1[C@@]24OO3 | 30 |
| COc1ccc(-c2cn([C@H]3O[C@@H]4O[C@@]5(C)CC[C@H]6[C@H](C)CC[C@@H]([C@@H]3C)[C@@]46OO5)nn2)cc1 | 30 |
| C[C@H]1[C@H](n2cc(-c3ccccc3)nn2)O[C@@H]2O[C@@]3(C)CC[C@H]4[C@H](C)CC[C@@H]1[C@@]24OO3 | 50 |
| CCCCCc1ccc(-c2cnnn2[C@@H]2O[C@@H]3O[C@@]4(C)CC[C@H]5[C@H](C)CC[C@@H]([C@H]2C)[C@@]35OO4)cc1 | 40 |

Test system: HeLa
Assay: Cytotoxicity against human HeLa cells assessed as cell growth inhibition measured after 48 hrs by MTT assay
Type: functional
Conditions: not given

| Structure (SMILES) | GI50 [nM] |
| --- | --- |
| Cc1ccc(-c2cnnn2[C@@H]2O[C@@H]3O[C@@]4(C)CC[C@H]5[C@H](C)CC[C@@H]([C@H]2C)[C@@]35OO4)cc1 | 40 |
| CCCCCc1ccc(-c2cn([C@H]3O[C@@H]4O[C@@]5(C)CC[C@H]6[C@H](C)CC[C@@H]([C@@H]3C)[C@@]46OO5)nn2)cc1 | 30 |
| C[C@@H]1CC[C@H]2[C@@H](C)C(n3cc(-c4cccc(Cl)c4)nn3)O[C@@H]3O[C@@]4(C)CC[C@@H]1[C@]32OO4 (some centres not stated) | 50 |
| C[C@@H]1[C@@H](n2cc(-c3ccc(F)cc3)nn2)O[C@@H]2O[C@@]3(C)CC[C@H]4[C@H](C)CC[C@@H]1[C@@]24OO3 | 30 |
| COc1ccc(-c2cn([C@H]3O[C@@H]4O[C@@]5(C)CC[C@H]6[C@H](C)CC[C@@H]([C@@H]3C)[C@@]46OO5)nn2)cc1 | 30 |
| C[C@H]1[C@H](n2cc(-c3ccccc3)nn2)O[C@@H]2O[C@@]3(C)CC[C@H]4[C@H](C)CC[C@@H]1[C@@]24OO3 | 50 |
| CCCCCc1ccc(-c2cnnn2[C@@H]2O[C@@H]3O[C@@]4(C)CC[C@H]5[C@H](C)CC[C@@H]([C@H]2C)[C@@]35OO4)cc1 | 40 |

Test system: SiHa
Assay: Cytotoxicity against human SiHa cells assessed as cell growth inhibition measured after 48 hrs by MTT assay
Type: functional
Conditions: not given

| Structure (SMILES) | GI50 [nM] |
| --- | --- |
| Cc1ccc(-c2cnnn2[C@@H]2O[C@@H]3O[C@@]4(C)CC[C@H]5[C@H](C)CC[C@@H]([C@H]2C)[C@@]35OO4)cc1 | 40 |
| CCCCCc1ccc(-c2cn([C@H]3O[C@@H]4O[C@@]5(C)CC[C@H]6[C@H](C)CC[C@@H]([C@@H]3C)[C@@]46OO5)nn2)cc1 | 30 |
| C[C@@H]1CC[C@H]2[C@@H](C)C(n3cc(-c4cccc(Cl)c4)nn3)O[C@@H]3O[C@@]4(C)CC[C@@H]1[C@]32OO4 (some centres not stated) | 50 |
| C[C@@H]1[C@@H](n2cc(-c3ccc(F)cc3)nn2)O[C@@H]2O[C@@]3(C)CC[C@H]4[C@H](C)CC[C@@H]1[C@@]24OO3 | 30 |
| COc1ccc(-c2cn([C@H]3O[C@@H]4O[C@@]5(C)CC[C@H]6[C@H](C)CC[C@@H]([C@@H]3C)[C@@]46OO5)nn2)cc1 | 30 |
| C[C@H]1[C@H](n2cc(-c3ccccc3)nn2)O[C@@H]2O[C@@]3(C)CC[C@H]4[C@H](C)CC[C@@H]1[C@@]24OO3 | 50 |
| CCCCCc1ccc(-c2cnnn2[C@@H]2O[C@@H]3O[C@@]4(C)CC[C@H]5[C@H](C)CC[C@@H]([C@H]2C)[C@@]35OO4)cc1 | 40 |

Test system: A 172
Assay: Cytotoxicity against human A-172 cells assessed as cell growth inhibition measured after 48 hrs by MTT assay
Type: functional
Conditions: not given

| Structure (SMILES) | GI50 [nM] |
| --- | --- |
| Cc1ccc(-c2cnnn2[C@@H]2O[C@@H]3O[C@@]4(C)CC[C@H]5[C@H](C)CC[C@@H]([C@H]2C)[C@@]35OO4)cc1 | 40 |
| CCCCCc1ccc(-c2cn([C@H]3O[C@@H]4O[C@@]5(C)CC[C@H]6[C@H](C)CC[C@@H]([C@@H]3C)[C@@]46OO5)nn2)cc1 | 30 |
| C[C@@H]1CC[C@H]2[C@@H](C)C(n3cc(-c4cccc(Cl)c4)nn3)O[C@@H]3O[C@@]4(C)CC[C@@H]1[C@]32OO4 (some centres not stated) | 50 |
| C[C@@H]1[C@@H](n2cc(-c3ccc(F)cc3)nn2)O[C@@H]2O[C@@]3(C)CC[C@H]4[C@H](C)CC[C@@H]1[C@@]24OO3 | 30 |
| COc1ccc(-c2cn([C@H]3O[C@@H]4O[C@@]5(C)CC[C@H]6[C@H](C)CC[C@@H]([C@@H]3C)[C@@]46OO5)nn2)cc1 | 30 |
| C[C@H]1[C@H](n2cc(-c3ccccc3)nn2)O[C@@H]2O[C@@]3(C)CC[C@H]4[C@H](C)CC[C@@H]1[C@@]24OO3 | 50 |
| CCCCCc1ccc(-c2cnnn2[C@@H]2O[C@@H]3O[C@@]4(C)CC[C@H]5[C@H](C)CC[C@@H]([C@H]2C)[C@@]35OO4)cc1 | 40 |

Test system: B16
Assay: Cytotoxicity against mouse B16 cells assessed as cell growth inhibition measured after 48 hrs by MTT assay
Type: functional
Conditions: not given

| Structure (SMILES) | GI50 [nM] |
| --- | --- |
| Cc1ccc(-c2cnnn2[C@@H]2O[C@@H]3O[C@@]4(C)CC[C@H]5[C@H](C)CC[C@@H]([C@H]2C)[C@@]35OO4)cc1 | 40 |
| CCCCCc1ccc(-c2cn([C@H]3O[C@@H]4O[C@@]5(C)CC[C@H]6[C@H](C)CC[C@@H]([C@@H]3C)[C@@]46OO5)nn2)cc1 | 30 |
| C[C@@H]1CC[C@H]2[C@@H](C)C(n3cc(-c4cccc(Cl)c4)nn3)O[C@@H]3O[C@@]4(C)CC[C@@H]1[C@]32OO4 (some centres not stated) | 50 |
| C[C@@H]1[C@@H](n2cc(-c3ccc(F)cc3)nn2)O[C@@H]2O[C@@]3(C)CC[C@H]4[C@H](C)CC[C@@H]1[C@@]24OO3 | 30 |
| COc1ccc(-c2cn([C@H]3O[C@@H]4O[C@@]5(C)CC[C@H]6[C@H](C)CC[C@@H]([C@@H]3C)[C@@]46OO5)nn2)cc1 | 30 |
| C[C@H]1[C@H](n2cc(-c3ccccc3)nn2)O[C@@H]2O[C@@]3(C)CC[C@H]4[C@H](C)CC[C@@H]1[C@@]24OO3 | 50 |
| CCCCCc1ccc(-c2cnnn2[C@@H]2O[C@@H]3O[C@@]4(C)CC[C@H]5[C@H](C)CC[C@@H]([C@H]2C)[C@@]35OO4)cc1 | 40 |
